Reference: PMC8597046, “Use of Mixture Dosing and Nonlinear Mixed Effect Modeling of Eight Environmental Contaminants in Rabbits to Improve Extrapolation Value of Toxicokinetic Data” (Environmental Health Perspectives, 2021)

Tests used:
[1] = TK assay, intravenous mixture dosing: serum concentrations and noncompartmental analysis (sparse data); settings: for Serum concentration: IV; for AUC0−inf / Cmax: serum; for Cmax: doses in Table 2 r3, BPSG after BPS dosing
Method: (§1) The experiment was carried out on thirty 10-wk old female New Zealand white rabbits (INRA 1777 line) weighing 2.37±0.14kg . […] Blood samples were taken at the designated time points post IV and oral administration: 15 min, 30 min, 1 h, 2 h, 4 h, 8 h, 12 h, 24 h, 3 d, 7 d, and 28 d from groups of 3 or 6 rabbits at each sampling time. Each rabbit was sampled 3 times and 3 rabbits were sampled at each sampling time, except at 30 min post administration, when 6 samples were collected to provide a sufficient blood volume for assaying the compounds. The doses and assay time points were selected to allow the calculation of TK parameters (Table 1) based on preliminary TK data. Residual concentrations of the compounds, and their possible evolution over time, were determined by sampling six entirely untreated rabbits during the TK study on the day of drug administrations, then 14 d and 28 d later.
(§2) The volume administered was adjusted to the animal’s body weight (BW) recorded the day before.
(§3) Intravenous administrations were performed via an indwelling catheter (22G Terumo, 0.9×25mm ) just after its insertion into an ear vein. […] For oral administrations, the mixture of all compounds ( 4mL/kg ) was deposited directly in the mouth of rabbits using a catheter (22G BD Insyte 22G, 0.9×25mm ). Prior to the study, the rabbits had been trained to gradually swallow water and then corn oil.
(§4) Blood samples were collected from the auricular artery using a 20 G needle ( 0.9×25mm ) and a dry tube. The first two blood samples were 8–10mL in volume, whereas a large volume (about 20mL ) was obtained antemortem immediately after electrical stunning (95LX rabbit stunner; Burdis), followed by exsanguination.
(§5) Serum concentration-time profiles of the different compounds were first analyzed using a noncompartmental approach (NCA) involving a sparse data option. Sparse data methodology consists of calculating TK parameters based on the mean profile of all the subjects in the dataset and is appropriate when a rich data series cannot be obtained, as in the present experiment ([FDA 1999]). The area under the concentration time curve ( AUC0−tlast ) and the area under the first moment curve ( AUMC0−tlast ) from dosing time ( t=0 ) to the time of the last measurable concentration were calculated using the linear trapezoidal rule after IV and oral dosing. The area under the serum concentration time curve from dosing time to infinity ( AUC0−inf ) was obtained by adding to AUC0−tlast the area extrapolated from the time of the last measurable concentration to infinity by dividing the last quantifiable serum concentration by the slope of the terminal phase ( λZ ), as estimated by linear regression using the best fit option of Phoenix®.
(§6) The clearance (CL) and apparent clearance (CL_F) were respectively estimated after IV and oral administrations by dividing the administered dose by the AUC0−inf calculated for each analyte.
(§7) The terminal half-life (HL) was estimated with Equation 1: (1) HL=0.69315/λZ where λz is the slope of the terminal phase.
The mean residence time (MRT) was estimated using Equation 3: (3) MRT=AUMCiv0−tlast /AUCiv0−tlast , where AUCMiv0−tlast and AUCiv0−tlast are the values of AUMC0−tlast and AUC0−tlast obtained after IV dosing.
The steady-state volume of distribution ( VSS ) was estimated using Equation 4: (4) VSS=CL×MRT, with CL and MRT as defined above.

[2] = TK assay, oral mixture dosing: serum concentrations and noncompartmental analysis (sparse data); settings: for Serum concentration: oral; for AUC0−inf / Cmax: serum; for Cmax: doses in Table 3 r3, MEHP measured after oral DEHP, BPSG after BPS
Method: as §1, §2, §3, §4, §5, §6, §7
The oral bioavailability (F) was estimated using Equation 2: (2) F=AUCvo0−tlast×Doseiv/AUCiv0−tlast×Dosevo, where AUCiv0−tlast and AUCvo0-tlast are the values of AUC0−tlast obtained after IV and oral dosing, respectively, and Doseiv and Dosevo are the IV and oral doses.

[3] = Chronic exposure: daily oral mixture for 17 wk, steady-state serum concentrations; settings: estimated from total BPS and 7% unconjugated fraction; targeted CSS 1 ng/mL
Method: The objective of this preliminary experiment was to check the ability of our approach to determine the loading and maintenance doses of the eight compounds to be administered simultaneously by oral route to reproduce in female rabbits targeted serum concentrations. The experiment was carried out on thirty-two 2-wk old female New Zealand white rabbits (INRA 1777 line) randomly allocated to a treatment and control groups of 16 rabbits weighing 309±45g and 298±62g , respectively. The treated rabbits were orally administrated a mixture of the eight compounds at a dosage corresponding to the sum of the loading and daily maintenance doses followed by daily administrations of the maintenance dose for 17 wk (see the “Estimation of the doses” section). The control group was orally administrated the vehicle for the same duration.
The volume of the maintenance dosing solution ( 1mL/kg ) was weekly adjusted to the mean BW estimated from the known pattern of growth of the INRA 1777 rabbit line. Oral dosing and antemortem blood sampling were performed as previously described.
Blood samples were left to clot for about 20–30 min at ambient temperature and centrifuged for 20 min at 3,000×g at 25°C. The separated serum was stored in glass tubes at −20°C until assayed.

[4] = oral mixture dosing, NCA, n=12, MEHP after oral DEHP
[5] = rabbit 13, 4.30 h, MEHP after oral DEHP
[6] = rabbit 14, 0.37 h, MEHP after oral DEHP
[7] = rabbit 14, 4.17 h, MEHP after oral DEHP
[8] = rabbit 15, 4.05 h, MEHP after oral DEHP
[9] = rabbit 15, 23.98 h, MEHP after oral DEHP
[10] = rabbit 16, 0.55 h, MEHP after oral DEHP
[11] = rabbit 16, 72.00 h, MEHP after oral DEHP
[12] = rabbit 17, 0.53 h, MEHP after oral DEHP
[13] = rabbit 17, 72.00 h, MEHP after oral DEHP
[14] = rabbit 18, 0.55 h, MEHP after oral DEHP
[15] = rabbit 18, 71.96 h, MEHP after oral DEHP
[16] = rabbit 19, 12.00 h, MEHP after oral DEHP
[17] = rabbit 20, 12.00 h, MEHP after oral DEHP
[18] = rabbit 21, 12.00 h, MEHP after oral DEHP

`O=S(=O)(c1ccc(O)cc1)c1ccc(O)cc1` [BPS, bisphenol S] gave a CL ([1]; IV mixture dosing, NCA, n=12) of 104000 mL/day/kg, an MRT ([1]; IV mixture dosing, NCA, n=12) of 1.26 h and a Serum concentration ([1]; rabbit 1, 0.30 h) of 2080 nM. The Serum concentration ([1]; rabbit 1, 4.38 h) was 25 nM, the Serum concentration ([1]; rabbit 1, 24.03 h) was < 4 nM and the Serum concentration ([1]; rabbit 2, 0.28 h) was 4060 nM. The Serum concentration ([1]; rabbit 2, 4.05 h) was 29 nM, the Serum concentration ([1]; rabbit 3, 0.35 h) was 3380 nM and the Serum concentration ([1]; rabbit 3, 4.05 h) was 65 nM. For the same compound, the Serum concentration ([1]; rabbit 4, 0.62 h) was 1030 nM, the Serum concentration ([1]; rabbit 4, 8.33 h) was 22 nM and the Serum concentration ([1]; rabbit 4, 72.00 h) was < 4 nM. The Serum concentration ([1]; rabbit 5, 0.75 h) was 1230 nM, the Serum concentration ([1]; rabbit 5, 8.62 h) was 15 nM and the Serum concentration ([1]; rabbit 5, 72.03 h) was < 4 nM. For the same compound, the Serum concentration ([1]; rabbit 6, 0.57 h) was 1840 nM, the Serum concentration ([1]; rabbit 6, 7.98 h) was 22 nM and the Serum concentration ([1]; rabbit 6, 71.97 h) was < 4 nM. It also gave a Serum concentration ([1]; rabbit 7, 1.13 h) of 370 nM, a Serum concentration ([1]; rabbit 7, 11.98 h) of 8.5 nM and a Serum concentration ([1]; rabbit 8, 1.12 h) of 290 nM. For the same compound, the Serum concentration ([1]; rabbit 8, 12.02 h) was 6 nM, the Serum concentration ([1]; rabbit 9, 1.03 h) was 410 nM and the Serum concentration ([1]; rabbit 9, 11.97 h) was 7.4 nM. The Serum concentration ([1]; rabbit 11, 2.08 h) was 110 nM, the Serum concentration ([1]; rabbit 12, 2.08 h) was 200 nM and the “AUC0−inf” value ([1]; IV mixture dosing, NCA, n=12) was 2.41 µM·h. It also gave a Cmax ([1]; IV mixture dosing, NCA, n=12) of 4060 nM, an MRT [2, 4] of 6.54 h and a Tmax [2, 4] of 0.23 h. The Serum concentration [2, 5] was 140 nM, the Serum concentration [2, 6] was 1550 nM and the Serum concentration [2, 7] was 130 nM. The Serum concentration [2, 8] was 110 nM, the Serum concentration [2, 9] was 12 nM and the Serum concentration [2, 10] was 320 nM. For the same compound, the Serum concentration ([2]; rabbit 16, 8.22 h, MEHP after oral DEHP) was 50 nM, the Serum concentration [2, 11] was < 4 nM and the Serum concentration [2, 12] was 58 nM. The Serum concentration ([2]; rabbit 17, 8.48 h, MEHP after oral DEHP) was 121 nM, the Serum concentration [2, 13] was < 4 nM and the Serum concentration [2, 14] was 940 nM. The Serum concentration ([2]; rabbit 18, 8.00 h, MEHP after oral DEHP) was 49 nM, the Serum concentration [2, 15] was < 4 nM and the Serum concentration ([2]; rabbit 19, 1.02 h, MEHP after oral DEHP) was 190 nM. The Serum concentration [2, 16] was 87 nM, the Serum concentration ([2]; rabbit 20, 1.07 h, MEHP after oral DEHP) was 150 nM and the Serum concentration [2, 17] was 51 nM. For the same compound, the Serum concentration ([2]; rabbit 21, 1.08 h, MEHP after oral DEHP) was 97 nM, the Serum concentration [2, 18] was 100 nM and the Serum concentration ([2]; rabbit 22, 2.00 h, MEHP after oral DEHP) was 120 nM. The Serum concentration ([2]; rabbit 23, 2.00 h, MEHP after oral DEHP) was 88 nM, the Serum concentration ([2]; rabbit 24, 2.22 h, MEHP after oral DEHP) was 110 nM and the “AUC0−inf” value [2, 4] was 3.38 µmol·h/L. For the same compound, the Cmax ([2]; oral mixture dosing, NCA, n=12) was 6930 nM and the “Mean serum concentration of (unconjugated) BPS, estimated” value [3] was 0.98 ng/mL.

With `O=S(=O)(O)C(F)(F)C(F)(F)C(F)(F)C(F)(F)C(F)(F)C(F)(F)C(F)(F)C(F)(F)F` [nPFOS, linear isomer of perfluorooctane sulfonate] the CL ([1]; IV mixture dosing, NCA, n=12) was 8.3 mL/day/kg, the MRT ([1]; IV mixture dosing, NCA, n=12) was 971 h and the VSS ([1]; IV mixture dosing, NCA, n=12) was 0.336 L/kg. The VZ ([1]; IV mixture dosing, NCA, n=12) was 0.353 L/kg, the Serum concentration ([1]; rabbit 1, 0.30 h) was 320 nM and the Serum concentration ([1]; rabbit 1, 4.38 h) was 280 nM. The Serum concentration ([1]; rabbit 1, 24.03 h) was 260 nM, the Serum concentration ([1]; rabbit 2, 0.28 h) was 430 nM and the Serum concentration ([1]; rabbit 2, 4.05 h) was 280 nM. It also gave a Serum concentration ([1]; rabbit 3, 0.35 h) of 380 nM, a Serum concentration ([1]; rabbit 3, 4.05 h) of 370 nM and a Serum concentration ([1]; rabbit 4, 0.62 h) of 350 nM. For the same compound, the Serum concentration ([1]; rabbit 4, 72.00 h) was 290 nM, the Serum concentration ([1]; rabbit 5, 0.75 h) was 380 nM and the Serum concentration ([1]; rabbit 5, 72.03 h) was 310 nM. It also gave a Serum concentration ([1]; rabbit 6, 0.57 h) of 360 nM, a Serum concentration ([1]; rabbit 6, 71.97 h) of 330 nM and a Serum concentration ([1]; rabbit 7, 11.98 h) of 290 nM. It also gave a Serum concentration ([1]; rabbit 7, 168.00 h) of 270 nM, a Serum concentration ([1]; rabbit 8, 12.02 h) of 240 nM and a Serum concentration ([1]; rabbit 8, 167.92 h) of 230 nM. It also gave a Serum concentration ([1]; rabbit 9, 11.97 h) of 310 nM, a Serum concentration ([1]; rabbit 9, 168.00 h) of 280 nM and a Serum concentration ([1]; rabbit 10, 671.96 h) of 150 nM. The Serum concentration ([1]; rabbit 11, 672.00 h) was 160 nM, the Serum concentration ([1]; rabbit 12, 671.83 h) was 190 nM and the “AUC0−inf” value ([1]; IV mixture dosing, NCA, n=12) was 330 µM·h. For the same compound, the Cmax ([1]; IV mixture dosing, NCA, n=12) was 427 nM, the half-life ([1]; terminal, IV mixture dosing, NCA, n=12) was 708 h and the “Oral bioavailability estimated by NCA” value ([2]; NCA) was “greater than 100%”. The “CL_F (apparent clearance)” value ([2]; oral mixture dosing, NCA, n=12) was 4.99 mL/day/kg, the MRT [2, 4] was 1678 h and the Tmax [2, 4] was 24 h. The “VZ_F (apparent volume of distribution associated to the terminal phase)” value [2, 4] was 0.359 L/kg, the Serum concentration [2, 5] was 710 nM and the Serum concentration [2, 6] was 230 nM. The Serum concentration [2, 7] was 890 nM, the Serum concentration [2, 8] was 1040 nM and the Serum concentration [2, 9] was 1280 nM. The Serum concentration [2, 10] was 140 nM, the Serum concentration [2, 11] was 1100 nM and the Serum concentration [2, 12] was 120 nM. For the same compound, the Serum concentration [2, 13] was 1540 nM, the Serum concentration [2, 14] was 290 nM and the Serum concentration [2, 15] was 1250 nM. For the same compound, the Serum concentration [2, 16] was 660 nM, the Serum concentration ([2]; rabbit 19, 168.02 h) was 1010 nM and the Serum concentration [2, 17] was 690 nM. For the same compound, the Serum concentration ([2]; rabbit 20, 168.00 h) was 1070 nM, the Serum concentration [2, 18] was 810 nM and the Serum concentration ([2]; rabbit 21, 168.00 h) was 1060 nM. The Serum concentration ([2]; rabbit 22, 672.02 h) was 450 nM, the Serum concentration ([2]; rabbit 23, 671.96 h) was 820 nM and the Serum concentration ([2]; rabbit 24, 672.02 h) was 1020 nM. The “AUC0−inf” value [2, 4] was 1,919 μmol×h/L and the Cmax ([2]; oral mixture dosing, NCA, n=12) was 1300 nM.
